Assays:
ob/ob and db/db mice = conditions: 8 day administration; cited from earlier work
[1] = molecular target: T1, AMPK protein (recombinant α1β1γ2) (Homo sapiens, UniProt Q13131+Q9Y478); experiment: AMPK enzymatic activity (Delfia, AMARA peptide); assay type: biochemical; conditions: compound 30 μM vs AMP 30 μM; 125 μM ATP; 30 min room temperature; ratio 90% or higher = direct activator
T1 construct: made in house; host or cells: E. coli
Procedure: The following biological test allows the determination of the efficacy of such compounds of formula (I) onto AMPK protein (recombinant α1β1γ2).
Human recombinant AMPK enzyme was expressed in E. Coli and was reactivated in vitro by LKB1 prior to enzyme activity determination.
AMPK enzyme activities were assayed by using A Delfia technology. AMPK enzyme activities were carried out in microtiter plates (50 mM Hepes buffer, pH 7.4 with 125 μM ATP respectively) in the presence of a synthetic peptide substrate (AMARAASAAALARRR, the “AMARA” peptide) and activators in serial dilutions. Reactions were initiated by the addition of AMPK (50-100 ng). Following mixing, the plates were incubated for 30 min at room temperature. Enzyme activity was assayed by using an anti-phosphoserine antibody to measure the quantity of phosphate incorporated into the AMARAA.
Ratio between the % of control (basal activity) of compound of formula (I) at 30 μM and the % of control (basal activity) of AMP (natural substrate) at 30 μM. Compounds of formula (I) in the table II are considered as direct activator of AMPK if the ratio is 90% or higher.

H-2 Kb cells = experiment: Glucose uptake in H-2 Kb cells (in vitro cellular test); assay type: cell-based, mouse; conditions: Mus musculus; differentiated H-2 Kb muscle cells, 4 hours incubation, 2-deoxy-D-[3H]glucose 10 min; read-out: activity: Concentration of compound for a glucose uptake equal or higher to glucose uptake induced by insulin (170 nM)
Procedure: The following cellular test allows the determination of the effect of AMPK activators such as compounds of formula (I) onto glucose uptake in a muscle cellular model.
H-2 Kb cells derived from heterozygous H-2 Kb tsA58 transgenic mouse were grown in 24-well in plates coated with matrigel and were cultured at 33° C. for 4 days under permissive conditions, as described previously by Fryer et al. (Diabetes 49 (12): 1978, 2000).
For differentiation in muscle, cells were switched to non-permissive culture conditions (37° C. in the absence of interferon-γ). After 3 days, cells were incubated for 4 hours in DMEM 1 g/l glucose culture medium containing different concentrations of the tested molecules. Then glucose uptake was measured by incubating the cells for 10 min with radiolabelled 2-deoxy-D-[1, 2 ^3H] glucose. Glucose uptake was terminated by rapidly washing the plates 2 times with ice-cold NaCl 0.9%. The cells were then solubilized in 0.1N NaOH for 30 min. Radioactivity was determined by liquid scintillation counting.
Activity table III: Concentration of compound (1) for a glucose uptake equal or higher to glucose uptake induced by insulin (170 nM)

T1 sequence (Q13131 whole entry): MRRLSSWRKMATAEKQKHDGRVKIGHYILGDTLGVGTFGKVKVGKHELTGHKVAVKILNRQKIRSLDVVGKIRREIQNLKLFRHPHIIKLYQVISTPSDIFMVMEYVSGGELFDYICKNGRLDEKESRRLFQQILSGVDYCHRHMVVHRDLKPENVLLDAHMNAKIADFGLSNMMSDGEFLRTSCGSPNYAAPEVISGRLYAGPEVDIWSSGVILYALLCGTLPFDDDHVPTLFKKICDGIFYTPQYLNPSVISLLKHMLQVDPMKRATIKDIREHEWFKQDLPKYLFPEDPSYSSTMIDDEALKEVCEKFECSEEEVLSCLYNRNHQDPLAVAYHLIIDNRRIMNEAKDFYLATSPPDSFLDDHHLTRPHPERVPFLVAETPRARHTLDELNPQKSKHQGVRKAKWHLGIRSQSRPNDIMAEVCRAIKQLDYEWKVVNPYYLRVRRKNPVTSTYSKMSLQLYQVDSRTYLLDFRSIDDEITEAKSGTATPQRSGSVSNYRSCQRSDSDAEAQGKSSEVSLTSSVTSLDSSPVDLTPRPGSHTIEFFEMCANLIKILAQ
T1 sequence (Q9Y478 whole entry): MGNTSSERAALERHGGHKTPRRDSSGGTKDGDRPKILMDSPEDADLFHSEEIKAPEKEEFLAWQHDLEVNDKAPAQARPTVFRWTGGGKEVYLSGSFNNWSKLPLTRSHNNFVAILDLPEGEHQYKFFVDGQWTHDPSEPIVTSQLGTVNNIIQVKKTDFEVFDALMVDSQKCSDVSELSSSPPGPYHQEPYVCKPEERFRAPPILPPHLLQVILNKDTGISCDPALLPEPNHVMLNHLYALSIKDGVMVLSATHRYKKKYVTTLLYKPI
T1 sequence (Q9UGJ0 whole entry partner): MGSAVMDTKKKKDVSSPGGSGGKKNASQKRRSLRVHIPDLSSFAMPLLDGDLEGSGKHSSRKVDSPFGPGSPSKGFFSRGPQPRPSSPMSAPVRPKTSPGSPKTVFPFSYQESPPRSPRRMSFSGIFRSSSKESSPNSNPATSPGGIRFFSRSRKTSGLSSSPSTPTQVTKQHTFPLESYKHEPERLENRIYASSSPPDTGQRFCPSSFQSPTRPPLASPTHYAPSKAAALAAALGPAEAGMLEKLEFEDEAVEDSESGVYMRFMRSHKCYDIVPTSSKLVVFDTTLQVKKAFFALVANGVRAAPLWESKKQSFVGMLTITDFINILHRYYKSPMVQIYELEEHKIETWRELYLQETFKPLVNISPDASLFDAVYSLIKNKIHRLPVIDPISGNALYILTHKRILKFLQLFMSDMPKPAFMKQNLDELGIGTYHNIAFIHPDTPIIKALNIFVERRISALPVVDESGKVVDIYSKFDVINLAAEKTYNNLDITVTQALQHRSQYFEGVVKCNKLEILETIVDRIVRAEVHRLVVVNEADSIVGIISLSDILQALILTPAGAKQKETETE

SMILES | reduces blood glucose (ob/ob and db/db mice) [%] | activity: Ratio between the % of control (basal activity) of compound of formula (I) at 30 μM and the % of control (basal activity) of AMP at 30 μM [1] [%] | EC (glucose uptake equal or higher to insulin 170 nM) (H-2 Kb cells) [µM]
NC(=O)c1ncn([C@@H]2O[C@H](CO)[C@@H](O)[C@H]2O)c1N [AICAR, 5-aminoimidazole-4-carboxamide riboside] | 35 | – | –
CS(=O)(=O)c1ccc(-c2ccc(-c3csc4[nH]c(=O)c(-c5ccccc5)c(O)c34)cc2)cc1 [Compound 20, 4-hydroxy-3-(4′-methylsulfonylbiphenyl-4-yl)-5-phenyl-6,7-dihydro-thieno[2,3-b]pyridin-6-one] | – | 206 | > 10
N#Cc1ccc(-c2c(O)c3c(-c4ccc(-c5ccccc5)cc4)csc3[nH]c2=O)cc1 [Compound 22, 3-biphenyl-4-yl-5-(4-cyanophenyl)-4-hydroxy-6,7-dihydro-thieno[2,3-b]pyridin-6-one] | – | 152 | > 10
Cc1ccccc1-c1ccc(-c2csc3[nH]c(=O)c(-c4cccnc4)c(O)c23)cc1 [Compound 35, 4-hydroxy-3-(2′-methylbiphenyl-4-yl)-5-pyridin-3-yl-6,7-dihydro-thieno[2,3-b]pyridin-6-one] | – | 161 | > 10
Cc1cccc(-c2ccc(-c3csc4[nH]c(=O)c(-c5cccnc5)c(O)c34)cc2)c1 [Compound 36, 4-hydroxy-3-(3′-methylbiphenyl-4-yl)-5-pyridin-3-yl-6,7-dihydro-thieno[2,3-b]pyridin-6-one] | – | 156 | > 10

From US8604202B2, “Thienopyridone derivatives as AMP-activated protein kinase (AMPK) activators” (Merck Patent GmbH, priority 2008, dated 2013)
